Reference: patent US7943619B2, “Isoxazolo-pyridazine derivatives” (priority 2007, dated 2011)
pKi: −log10 of the molar value. Structures can show the parent of a compound that is named as a salt.

The compounds below were run against human GABA A receptor α5β3γ2 (α5 subunit) (Homo sapiens, UniProt P18507+P31644) (assay: biochemical). Conditions: not given.
Type: binding
Procedure: The affinity of compounds at GABA A receptor subtypes was measured by competition for [3H]flumazenil (85 Ci/mmol; Roche) binding to HEK293 cells expressing rat (stably transfected) or human (transiently transfected) receptors of composition α1β3γ2, α2β3γ2, α3β3γ2 and α5β3γ2.
Cell pellets were suspended in Krebs-tris buffer (4.8 mM KCl, 1.2 mM CaCl2, 1.2 mM MgCl2, 120 mM NaCl, 15 mM Tris; pH 7.5; binding assay buffer), homogenized by polytron for ca. 20 sec on ice and centrifuged for 60 min at 4° C. (50000 g; Sorvall, rotor: SM24=20000 rpm). The cell pellets were resuspended in Krebs-tris buffer and homogenized by polytron for ca. 15 sec on ice. Protein was measured (Bradford method, Bio-Rad) and aliquots of 1 mL were prepared and stored at −80° C.
Assays were incubated to equilibrium for 1 hour at 4° C. and harvested onto GF/C uni-filters (Packard) by filtration using a Packard harvester and washing with ice-cold wash buffer (50 mM Tris; pH 7.5). After drying, filter-retained radioactivity was detected by liquid scintillation counting. Ki values were calculated using Excel-Fit (Microsoft) and are the means of two determinations.

Sequence of human GABA A receptor α5β3γ2 (α5 subunit) (P31644 32-462): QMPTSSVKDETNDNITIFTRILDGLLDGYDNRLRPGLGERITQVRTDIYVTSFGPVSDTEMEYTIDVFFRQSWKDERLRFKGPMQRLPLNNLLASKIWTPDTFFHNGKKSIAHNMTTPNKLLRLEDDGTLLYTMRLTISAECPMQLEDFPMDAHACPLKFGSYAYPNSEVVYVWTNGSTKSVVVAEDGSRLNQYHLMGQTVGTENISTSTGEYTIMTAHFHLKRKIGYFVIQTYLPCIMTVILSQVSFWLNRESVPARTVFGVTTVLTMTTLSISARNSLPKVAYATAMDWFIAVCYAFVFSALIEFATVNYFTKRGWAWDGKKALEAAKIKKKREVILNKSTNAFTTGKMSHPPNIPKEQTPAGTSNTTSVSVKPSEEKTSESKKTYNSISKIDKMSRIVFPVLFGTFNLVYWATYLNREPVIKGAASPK
Sequence of human GABA A receptor α5β3γ2 (α5 subunit) (P28472 26-473 partner): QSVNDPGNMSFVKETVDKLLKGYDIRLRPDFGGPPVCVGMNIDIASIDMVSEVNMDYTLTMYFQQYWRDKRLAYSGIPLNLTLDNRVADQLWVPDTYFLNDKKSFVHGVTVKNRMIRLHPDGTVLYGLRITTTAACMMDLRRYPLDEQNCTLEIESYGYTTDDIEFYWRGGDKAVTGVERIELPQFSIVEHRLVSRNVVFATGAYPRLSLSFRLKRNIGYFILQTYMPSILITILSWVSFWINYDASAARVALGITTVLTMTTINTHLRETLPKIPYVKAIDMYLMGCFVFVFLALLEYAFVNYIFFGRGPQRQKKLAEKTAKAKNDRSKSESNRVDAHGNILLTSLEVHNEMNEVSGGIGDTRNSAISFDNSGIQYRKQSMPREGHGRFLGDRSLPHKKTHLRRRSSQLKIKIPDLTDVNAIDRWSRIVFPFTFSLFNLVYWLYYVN
Sequence of human GABA A receptor α5β3γ2 (α5 subunit) (P18507 40-475): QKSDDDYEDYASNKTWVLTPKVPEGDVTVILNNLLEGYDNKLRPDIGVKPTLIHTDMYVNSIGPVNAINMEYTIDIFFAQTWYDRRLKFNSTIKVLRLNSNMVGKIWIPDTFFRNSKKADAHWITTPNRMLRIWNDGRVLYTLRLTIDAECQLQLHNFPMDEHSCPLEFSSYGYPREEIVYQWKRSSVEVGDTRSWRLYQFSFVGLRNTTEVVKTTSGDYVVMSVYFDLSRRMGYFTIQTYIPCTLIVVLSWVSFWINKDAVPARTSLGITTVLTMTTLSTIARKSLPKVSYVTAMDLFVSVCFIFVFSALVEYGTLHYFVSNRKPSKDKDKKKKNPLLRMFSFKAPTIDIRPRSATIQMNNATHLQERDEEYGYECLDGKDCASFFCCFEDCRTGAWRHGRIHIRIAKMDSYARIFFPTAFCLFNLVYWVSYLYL

Row | pKi | Structure (SMILES)
1 | 7.59 | Cc1onc(-c2ccccn2)c1COc1ccc(C(=O)N2CCOCC2)nn1 [Example 96, [6-(5-Methyl-3-pyridin-2-yl-isoxazol-4-ylmethoxy)-pyridazin-3-yl]-morpholin-4-yl-methanone]

Same assay, conditions: competition for [3H]flumazenil binding, HEK293 cells transiently expressing human receptors; means of two determinations; read-out: hKi

Row | Structure (SMILES) | pKi
2 | CC(C)NC(=O)c1ccc(OCc2conc2-c2ccc(F)cc2)nn1 [Example 121, 6-[3-(4-Fluoro-phenyl)-isoxazol-4-ylmethoxy]-pyridazine-3-carboxylic acid isopropylamide] | 7.56
3 | Cc1onc(-c2ccccc2)c1COc1ccc(N2CCCC2=O)nn1 [Example 27, 1-[6-(5-Methyl-3-phenyl-isoxazol-4-ylmethoxy)-pyridazin-3-yl]-pyrrolidin-2-one] | 8.40
4 | Cc1onc(-c2ccccc2)c1COc1ccc(Br)nn1 [Example 2, 3-Bromo-6-(5-methyl-3-phenyl-isoxazol-4-ylmethoxy)-pyridazine] | 8.12
5 | Cc1cc(OCc2c(-c3ccccc3)noc2C)nnc1Cl [Example 41, 3-Chloro-4-methyl-6-(5-methyl-3-phenyl-isoxazol-4-ylmethoxy)-pyridazine] | 8.64
6 | Cc1onc(-c2ccccc2)c1COc1ccc2nncn2n1 [Example 86, 6-(5-Methyl-3-phenyl-isoxazol-4-ylmethoxy)-[1,2,4]triazolo[4,3-b]pyridazine] | 8.18
7 | CCOC(=O)c1ccc(OCc2c(-c3cccc(F)c3)noc2C)nn1 [Example 49, 6-[3-(3-Fluoro-phenyl)-5-methyl-isoxazol-4-ylmethoxy]-pyridazine-3-carboxylic acid ethyl ester] | 8.02
8 | Cc1onc(-c2ccccc2)c1COc1ccc(NC(=O)c2ccno2)nn1 [Example 33, Isoxazole-5-carboxylic acid [6-(5-methyl-3-phenyl-isoxazol-4-ylmethoxy)-pyridazin-3-yl]-amide] | 8.27
9 | Cc1onc(-c2ccccc2)c1COc1ccc(NC(=O)c2ccco2)nn1 [Example 32, Furan-2-carboxylic acid [6-(5-methyl-3-phenyl-isoxazol-4-ylmethoxy)-pyridazin-3-yl]-amide] | 8.16
10 | COC(=O)C(=O)Nc1ccc(OCc2c(-c3ccccc3)noc2C)nn1 [Example 28, N-[6-(5-Methyl-3-phenyl-isoxazol-4-ylmethoxy)-pyridazin-3-yl]-oxalamic acid methyl ester] | 8.29
11 | Cc1onc(-c2ccccc2)c1COc1ccc(Cl)nn1 [Example 1, 3-Chloro-6-(5-methyl-3-phenyl-isoxazol-4-ylmethoxy)-pyridazine] | 8.02
12 | Cc1onc(-c2ccccc2)c1COc1ccc(N2CCOCC2)nn1 [Example 36, 4-[6-(5-Methyl-3-phenyl-isoxazol-4-ylmethoxy)-pyridazin-3-yl]-morpholine] | 8.03
13 | Cc1onc(-c2ccc(F)cc2)c1COc1ccc2nncn2n1 [Example 91, 6-[3-(4-Fluoro-phenyl)-5-methyl-isoxazol-4-ylmethoxy]-[1,2,4]triazolo[4,3-b]pyridazine] | 8.12
14 | CNc1ccc(OCc2c(-c3ccccc3)noc2C)nn1 [Example 37, Methyl-[6-(5-methyl-3-phenyl-isoxazol-4-ylmethoxy)-pyridazin-3-yl]-amine HCl] | 8.20
15 | Cc1onc(-c2ccc(Cl)cn2)c1CNc1ccc(C(=O)NC(C)(C)CO)nn1 [Example 119, 6-{[3-(5-Chloro-pyridin-2-yl)-5-methyl-isoxazol-4-ylmethyl]-amino}-pyridazine-3-carboxylic acid (2-hydroxy-1,1-dimethyl-ethyl)-amide] | 8.14
16 | Cc1onc(-c2cccc(F)c2)c1CNc1ccc(C(=O)NCC(F)(F)F)nn1 [Example 118, 6-{[3-(3-Fluoro-phenyl)-5-methyl-isoxazol-4-ylmethyl]-amino}-pyridazine-3-carboxylic acid (2,2,2-trifluoro-ethyl)-amide] | 7.54
17 | O=C(NC1CCOCC1)c1ccc(OCc2conc2-c2ccc(F)cc2)nn1 [Example 122, 6-[3-(4-Fluoro-phenyl)-isoxazol-4-ylmethoxy]-pyridazine-3-carboxylic acid (tetrahydro-pyran-4-yl)-amide] | 7.46

More lines, now with the values ahead:

Row | pKi | Structure (SMILES)
18 | 7.83 | Cc1onc(-c2ccncn2)c1COc1ccc(C(=O)NC(C)(C)CO)nn1 [Example 115, 6-(5-Methyl-3-pyrimidin-4-yl-isoxazol-4-ylmethoxy)-pyridazine-3-carboxylic acid (2-hydroxy-1,1-dimethyl-ethyl)-amide]
19 | 8.39 | Cc1onc(-c2ccccn2)c1COc1ccc(C(=O)NCC2CC2)nn1 [Example 100, 6-(5-Methyl-3-pyridin-2-yl-isoxazol-4-ylmethoxy)-pyridazine-3-carboxylic acid cyclopropylmethyl-amide]
20 | 8.26 | CCOC(=O)c1ccc(OCc2c(-c3ccccc3)noc2C)nn1 [Example 5, 6-(5-Methyl-3-phenyl-isoxazol-4-ylmethoxy)-pyridazine-3-carboxylic acid ethyl ester]
21 | 8.00 | Cc1onc(-c2ccccc2)c1COc1ccc(NC(=O)C2CCC2)nn1 [Example 22, Cyclobutanecarboxylic acid [6-(5-methyl-3-phenyl-isoxazol-4-ylmethoxy)-pyridazin-3-yl]-amide]
22 | 8.17 | Cc1onc(-c2cccc(F)c2)c1COc1ccc(C(=O)NC2CC2)nn1 [Example 55, 6-[3-(3-Fluoro-phenyl)-5-methyl-isoxazol-4-ylmethoxy]-pyridazine-3-carboxylic acid cyclopropylamide]
23 | 8.23 | Cc1onc(-c2ccccc2)c1COc1ccc(C(=O)NC(C)C)nn1 [Example 7, 6-(5-Methyl-3-phenyl-isoxazol-4-ylmethoxy)-pyridazine-3-carboxylic acid isopropylamide]
24 | 8.11 | Cc1onc(-c2ccccc2)c1COc1ccc(C(=O)NC(C)(C)CO)nn1 [Example 13, 6-(5-Methyl-3-phenyl-isoxazol-4-ylmethoxy)-pyridazine-3-carboxylic acid (2-hydroxy-1,1-dimethyl-ethyl)-amide]
25 | 8.80 | Cc1onc(-c2ccccn2)c1COc1ccc(C(=O)NC2CC2)nn1 [Example 97, 6-(5-Methyl-3-pyridin-2-yl-isoxazol-4-ylmethoxy)-pyridazine-3-carboxylic acid cyclopropylamide]
26 | 7.56 | Cc1onc(-c2ccccn2)c1COc1ccc(C(=O)N2CCSCC2)nn1 [Example 104, [6-(5-Methyl-3-pyridin-2-yl-isoxazol-4-ylmethoxy)-pyridazin-3-yl]-thiomorpholin-4-yl-methanone]
27 | 9.05 | CNC(=O)c1ccc(OCc2c(-c3ccccn3)noc2C)nn1 [Example 102, 6-(5-Methyl-3-pyridin-2-yl-isoxazol-4-ylmethoxy)-pyridazine-3-carboxylic acid methylamide]
28 | 8.46 | Cc1onc(-c2ccccc2)c1COc1ccc(C(=O)NC2CC2)nn1 [Example 8, 6-(5-Methyl-3-phenyl-isoxazol-4-ylmethoxy)-pyridazine-3-carboxylic acid cyclopropylamide]
29 | 8.80 | Cc1onc(-c2ccc(F)cn2)c1COc1ccc(Cl)nn1 [Example 110, 3-Chloro-6-[3-(5-fluoro-pyridin-2-yl)-5-methyl-isoxazol-4-ylmethoxy]-pyridazine]
30 | 8.85 | Cc1cc(OCc2c(-c3ccccc3)noc2C)nnc1C(=O)NC1CC1 [Example 45, 4-Methyl-6-(5-methyl-3-phenyl-isoxazol-4-ylmethoxy)-pyridazine-3-carboxylic acid cyclopropylamide]
31 | 8.82 | Cc1onc(-c2ccc(F)cn2)c1COc1ccc(C(=O)NC(C)(C)CO)nn1 [Example 112, 6-[3-(5-Fluoro-pyridin-2-yl)-5-methyl-isoxazol-4-ylmethoxy]-pyridazine-3-carboxylic acid (2-hydroxy-1,1-dimethyl-ethyl)-amide]
32 | 8.28 | Cc1onc(-c2ccccc2)c1COc1ccc(NC(=O)C2CC2)nn1 [Example 21, Cyclopropanecarboxylic acid [6-(5-methyl-3-phenyl-isoxazol-4-ylmethoxy)-pyridazin-3-yl]-amide]
33 | 8.85 | Cc1onc(-c2ccccn2)c1COc1ccc(C(=O)NCCO)nn1 [Example 101, 6-(5-Methyl-3-pyridin-2-yl-isoxazol-4-ylmethoxy)-pyridazine-3-carboxylic acid (2-hydroxy-ethyl)-amide]
34 | 8.47 | Cc1cc(OCc2c(-c3ccccc3)noc2C)nnc1C(=O)NC1CCOCC1 [Example 44, 4-Methyl-6-(5-methyl-3-phenyl-isoxazol-4-ylmethoxy)-pyridazine-3-carboxylic acid (tetrahydro-pyran-4-yl)-amide]
35 | 8.92 | CCOC(=O)c1ccc(OCc2c(-c3ccc(F)cn3)noc2C)nn1 [Example 111, 6-[3-(5-Fluoro-pyridin-2-yl)-5-methyl-isoxazol-4-ylmethoxy]-pyridazine-3-carboxylic acid ethyl ester]
36 | 8.33 | Cc1onc(-c2ccncn2)c1COc1ccc(C(=O)NCCO)nn1 [Example 114, 6-(5-Methyl-3-pyrimidin-4-yl-isoxazol-4-ylmethoxy)-pyridazine-3-carboxylic acid (2-hydroxy-ethyl)-amide]
37 | 8.05 | CNC(=O)c1ccc(OCc2c(-c3ccncc3)noc2C)nn1 [Example 108, 6-(5-Methyl-3-pyridin-4-yl-isoxazol-4-ylmethoxy)-pyridazine-3-carboxylic acid methylamide]
